Experimental data reported in patent publication US5681823A, “P^1, P^4 -dithio-P^2 -P^3 -monochloromethylene 5', 5'"-diadenosine P^1, P^4 -tetraphosphate as antithrombotic agent” (PRP Inc., priority 1996, dated 1997).
“Also recorded” adds a separate entry of the source. Where two headings read alike, the source gives them in different places.

Tests used:
[1] = system: Cytoplasmic Calcium Ion (Ca^++) Mobilization in platelets; assay: Cytoplasmic calcium ion mobilization in platelets (Indo-1, flow cytometer); assay type: cell-based, human; settings: unstimulated peak 133
Protocol: (§1) Unless otherwise provided below, the experimental procedures were performed according to the procedures provided in U.S. Pat. No. 5,049.550 (Zamecnik '550), the entire contents of which are incorporated herein by reference. Some alternative procedures (e.g., release reaction, PF3 assays) and a number of additional studies also are provided (e.g., cytoplasmic calcium mobilization, fibrinogen binding site, agonists other than ADP, platelet cAMP and distribution of CHCl-AP4 A into blood components). Blood was collected in a 0.1 volume of 3.8% sodium citrate from healthy human volunteers who had abstained from antiplatelet agents for at least 10 days. Platelet rich plasma (PRP) was separated by a gradual centrifugation and adjusted to 3.3×10^8 platelets per ml plasma. PRP has been utilized in the Examples unless otherwise stated.
An increment of cytoplasmic Ca^++ in the platelets represents an activated state. Indo-1 acetomethyl ester (Indo-1) commonly has been utilized as the reagent to detect intracellular free Ca^++. Indo-1 reacts with Ca^++ and produces fluorescence which can be monitored in a dual wavelength (408/485) flow cytometer (Coulter EPIC Systems). Platelets were incubated with Indo-1 at 37° C. for 45 min. Excess Indo-1 in the medium was removed by gel-filtration method. Indo-1-loaded platelets were then activated by 6.7 μM ADP in the absence or presence of thio-CHCl-AP4 A (3.3 μM) or CHCl-AP4 A (6.7 μM). Fluorescence intensity of the platelets was monitored and plotted against platelet number. The histograms generated from the plots were analyzed. Unstimulated platelets registered fluorescence intensity (FI) between 42 and 250 with a peak at 133 (base line control).

[2] = system: ADP-induced platelet aggregation; settings: cited from earlier work
[3] = cited from earlier work
[4] = system: ADP-induced platelet aggregation; thrombus formation; settings: in words; cited from earlier work
[5] = cited from earlier work; remark: listed apart in the source
[6] = system: ADP-induced platelet aggregation; settings: Zamecnik '550 Table 3; cited from earlier work
[7] = system: ADP-induced platelet aggregation; assay: ADP-induced platelet aggregation in platelet-rich plasma (turbidimetric method of Born, aggregometer); assay type: cell-based, human; settings: ADP-induced aggregation, PRP, mean of three (*) or two determinations
Protocol: as §1
An initial screening was performed for inhibitory effects of several agents (including, e.g., thio-CHCl-AP4 A and CHCl-AP4 A as reference agent)) on platelet aggregation induced by ADP. Platelet aggregation was measured with platelet-rich plasma (PKP) by the turbidimetric method of Born (J. Physiol. 162:67, 1962) in an aggregometer (Chrono-log, Model 530 VS). Platelet aggregation induced by 5 μM ADP in the absence or presence of 5 μM agents was examined. […] The IC50 value of the CHCl-AP4 A (reference agent) was consistent with the value reported previously (P. Zamecnik et al., Proc. Nat'l. Acad. Sci. USA 89:2370-2373 (1992)).

platelet cAMP level [8] = assay: Level of intracellular platelet cAMP (etheno-cAMP, HPLC); assay type: cell-based, human; settings: 10 μM agent, 37° C., 5 min; control 31.6
Protocol: as §1
The inhibitory effect of cAMP on platelet aggregation has been known as a counteraction of calcium ion mobilization. Accordingly, the inhibitory effects of the agents with respect to a cAMP mediated mechanism was tested. PRP was incubated with saline (control), agents (at 20 μM and 100 μM), or forskolin (10 μM) at 37° C. for 5 min. After incubation, extracts were made using Ba(OH)2 and ZnSO4. Cyclic AMP in the extracts was converted into the etheno-cAMP derivative, and the levels were estimated by HPLC using a fluorescence detector (W. Wojcik et al., J. Cyclic Nucleotide Res. 7:27-35 (1981)). The level of cAMP in an unknown extract was determined by extrapolation from a standard graph. A linear relationship between the cAMP level in the extracted samples and fluorescence detection was observed. […] However, this increase may not be a specific effect. Although adenosine contamination in the tested AP4 A agents was not detected, it is possible that either cellular adenosine nucleotide metabolic products or contaminated adenosine in the tested agents may be responsible for the elevated cAMP level.

platelet cAMP level [9] = assay: as above; assay type: cell-based, human; settings: forskolin 101 μM as printed, positive control, in words
[10] = in words, cited from earlier work; for side effects / bleeding risk: clinical

Molecule: CNc1ccc2oc(C[C@H]3O[C@@]4(CC[C@H]3C)O[C@H]([C@H](C)C(=O)c3ccc[nH]3)[C@H](C)C[C@H]4C)nc2c1C(=O)O [A23187]
- fluorescence intensity (FI), peak ([1]; 2 μM A23187, positive control): 530

Molecule: Nc1ncnc2c1ncn2[C@@H]1O[C@H](COP(=O)(O)OP(=O)(O)O)[C@@H](O)[C@H]1O [ADP, adenosine diphosphate]
- fluorescence intensity (FI), peak ([1]; 6.7 μM ADP, no agent): 158

Molecule: Nc1ncnc2c1ncn2[C@@H]1O[C@H](COP(=O)(O)OP(=O)(O)OP(=O)(O)OC[C@H]2O[C@@H](n3cnc4c(N)ncnc43)[C@H](O)[C@@H]2O)[C@@H](O)[C@H]1O [AP3 A, diadenosine 5', 5'"-p^1, p^3 -triphosphate]
- effect on platelet aggregation ([2]; AP3 A, in words): gradual aggregation of platelets
- degradation products in plasma [3]: hydrolyzed in plasma to AMP (adenosine monophosphate) and ADP (adenosine diphosphate)

Molecule: Nc1ncnc2c1ncn2[C@@H]1O[C@H](COP(=O)(O)OP(=O)(O)OP(=O)(O)OP(=O)(O)OC[C@H]2O[C@@H](n3cnc4c(N)ncnc43)[C@H](O)[C@@H]2O)[C@@H](O)[C@H]1O [AP4 A, diadenosine 5', 5'"-P^1,P^4 -tetraphosphate]
- dispersion of aggregated platelets ([2]; even when aggregation has progressed to 60% completion): immediate dispersion of aggregated platelets
- effect on ADP-induced platelet aggregation ([2]; in vitro, in words): competitive inhibitor; also recorded: competitively inhibits
- AP4 A degraded in plasma ([3]; ^32 P-labeled, normal plasma, ten minutes, 37° C., 10 min): 90%
- degradation products in plasma [3]: degraded to AMP and ATP (adenosine triphosphate)
- effect on ADP-induced platelet aggregation on administration to a mammal [4]: inhibit markedly ADP-induced platelet aggregation
- effect on thrombus formation on administration to a mammal [4]: inhibit thrombus formation
- half-life in rabbit blood ([5]; in vivo and ex vivo): short half-life
- ex vivo decay compared to in vivo clearance ([5]; rabbit blood): significantly longer

Molecule: Nc1ncnc2c1ncn2[C@@H]1O[C@H](COP(=O)(O)OP(=O)(O)C(F)P(=O)(O)OP(=O)(O)OC[C@H]2O[C@@H](n3cnc4c(N)ncnc43)[C@H](O)[C@@H]2O)[C@@H](O)[C@H]1O (some centres unmarked) [AppCHFppA]
- ID10 [6]: 4 µM

Molecule: Nc1ncnc2c1ncn2[C@H]1C[C@H](O)[C@@H](COP(=O)(O)OP(=O)(O)C(Cl)P(=O)(O)OP(=O)(O)OC[C@H]2O[C@@H](n3cnc4c(N)ncnc43)C[C@@H]2O)O1 (some centres unmarked) [CHCl-dAP4 dA]
- IC50 ([7]; read-out: IC50): > 100 µM

Molecule: C=C[C@@]1(C)CC(=O)[C@]2(O)[C@@]3(C)[C@@H](O)CCC(C)(C)[C@@H]3[C@H](O)[C@H](OC(C)=O)[C@@]2(C)O1 [Forskolin]
- platelet cAMP level (platelet cAMP level [8]): 124.4 nM
- effect on platelet cAMP (platelet cAMP level [9]): marked increase

Molecule: Nc1ncnc2c1ncn2[C@H]1C[C@H](O)[C@@H](COP(O)(=S)OP(=O)(O)C(Cl)P(=O)(O)OP(O)(=S)OC[C@H]2O[C@@H](n3cnc4c(N)ncnc43)C[C@@H]2O)O1 (some centres unmarked) [Thio-CHCl-dAP4 dA]
- IC50 [7]: 9.22 µM

Molecule: CC(=O)Oc1ccccc1C(=O)O [aspirin]
- clinical effectiveness [10]: useful but limited effectiveness

Molecule: Clc1ccccc1CN1CCc2sccc2C1 [ticlopidine]
- side effects / bleeding risk [10]: substantial side effects

Molecule: ReoPro: newer drugs, such as ReoPro (7E3)
- side effects / bleeding risk [10]: increased risk of major bleeding
